Reference: US6828334B2, “Fenofibrate-cyclodextrin inclusion complexes and their pharmaceutical composition” (USV Limited, priority 2002, dated 2004)

Assay: in-vitro dissolution, rotating blade method at 75 rpm according to USP24
Type: physicochemical

## CC(C)OC(=O)C(C)(C)Oc1ccc(C(=O)c2ccc(Cl)cc2)cc1 [fenofibrate, 2-[4-(4-chlorobenzoyl)phenoxy]-2-methyl propionate]
Water with 0.025 M sodium lauryl sulfate, 1200 ml, 5 min
  % release of fenofibrate: 8-10%
Water with 0.025 M sodium lauryl sulfate, 1200 ml, 10 min
  % release of fenofibrate: 16-22%
Water with 0.025 M sodium lauryl sulfate, 1200 ml, 20 min
  % release of fenofibrate: 24-30%
Water with 2% by weight polysorbate-80, 1200 ml, 5 min
  % release of fenofibrate: 4-8%
Water with 2% by weight polysorbate-80, 1200 ml, 10 min
  % release of fenofibrate: 19-22%
Water with 2% by weight polysorbate-80, 1200 ml, 20 min
  % release of fenofibrate: 30-32%
Water with 2% by weight polysorbate-80, 1200 ml, 30 min
  % release of fenofibrate: 36-38%
